Experimental data reported in ChEMBL document CHEMBL1201862, “PubChem BioAssay data set” (2004).
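1) Cells in 96-well plates. 2) Compound, 48 h, 5 concentrations. 3) Linear interpolation between surrounding doses. 4) Unreached endpoint = highest concentration. GI50 is the concentration that inhibits growth by half.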 Calls of active or inactive are those of the source. Cut-off read from the data, not from the text of the source: active = GI50 up to about 1.1 µM and inactive = higher.

What was measured:
Test in all cases: inhibition of tumour cell growth, NCI panel, 48 h
[1] = tested on: 786-0
[2] = tested on: A498
[3] = tested on: A549
[4] = tested on: ACHN
[5] = tested on: BT-549
[6] = tested on: CAKI-1
[7] = tested on: CCRF-CEM
[8] = tested on: COLO 205
[9] = tested on: DU-145
[10] = tested on: EKVX
[11] = tested on: HCC 2998
[12] = tested on: HCT-116
[13] = tested on: HCT-15
[14] = tested on: HOP-62
[15] = tested on: HOP-92
[16] = tested on: HT-29
[17] = tested on: Hs-578T
[18] = tested on: IGROV-1
[19] = tested on: KM12
[20] = tested on: LOX IMVI
[21] = tested on: MCF7
[22] = tested on: MDA-MB-231
[23] = tested on: MDA-MB-435
[24] = tested on: MDA-N
[25] = tested on: Malme-3M
[26] = tested on: NCI-H226
[27] = tested on: NCI-H23
[28] = tested on: NCI-H460
[29] = tested on: NCI-H522
[30] = tested on: NCI/ADR-RES
[31] = tested on: OVCAR-3
[32] = tested on: OVCAR-4
[33] = tested on: OVCAR-5
[34] = tested on: OVCAR-8
[35] = tested on: PC-3
[36] = tested on: RXF 393
[37] = tested on: SF-268
[38] = tested on: SF-295
[39] = tested on: SK-MEL-28
[40] = tested on: SK-MEL-2
[41] = tested on: SK-MEL-5
[42] = tested on: SK-OV-3
[43] = tested on: SN12C
[44] = tested on: SNB-19
[45] = tested on: SNB-75
[46] = tested on: SW-620
[47] = tested on: T47D
[48] = tested on: TK-10
[49] = tested on: U-251
[50] = tested on: UACC-257
[51] = tested on: UACC-62
[52] = tested on: UO-31
[53] = tested on: HL-60
[54] = tested on: K562
[55] = tested on: M14
[56] = tested on: MOLT-4
[57] = tested on: RPMI-8226
[58] = tested on: SF-539
[59] = tested on: SR

CCCC(=O)OCC1(CO)C/C(=C/CC(C(C)C)C(C)C)C(=O)O1 (stereo not drawn)
GI50 [1]: > 100 µM (inactive)
GI50 [2]: > 100 µM (inactive)
GI50 [3]: > 100 µM (inactive)
GI50 [4]: > 100 µM (inactive)
GI50 [5]: > 100 µM (inactive)
GI50 [6]: > 100 µM (inactive)
GI50 [7]: > 100 µM (inactive)
GI50 [8]: > 100 µM (inactive)
GI50 [9]: > 100 µM (inactive)
GI50 [10]: > 100 µM (inactive)
GI50 [11]: > 100 µM (inactive)
GI50 [12]: > 100 µM (inactive)
GI50 [13]: > 100 µM
GI50 [14]: > 100 µM (inactive)
GI50 [15]: 97.7 µM (inactive)
GI50 [16]: > 100 µM (inactive)
GI50 [17]: > 100 µM (inactive)
GI50 [18]: > 100 µM (inactive)
GI50 [19]: 44.5 µM (inactive)
GI50 [20]: 17.4 µM (inactive)
GI50 [21]: > 100 µM (inactive)
GI50 [22]: > 100 µM (inactive)
GI50 [23]: > 100 µM (inactive)
GI50 [24]: > 100 µM (inactive)
GI50 [25]: 64.4 µM (inactive)
GI50 [26]: > 100 µM (inactive)
GI50 [27]: > 100 µM (inactive)
GI50 [28]: > 100 µM (inactive)
GI50 [29]: 38.7 µM (inactive)
GI50 [30]: > 100 µM (inactive)
GI50 [31]: > 100 µM (inactive)
GI50 [32]: > 100 µM (inactive)
GI50 [33]: > 100 µM (inactive)
GI50 [34]: > 100 µM (inactive)
GI50 [35]: > 100 µM (inactive)
GI50 [36]: > 100 µM (inactive)
GI50 [37]: > 100 µM (inactive)
GI50 [38]: > 100 µM (inactive)
GI50 [39]: > 100 µM (inactive)
GI50 [40]: > 100 µM (inactive)
GI50 [41]: 54.7 µM (inactive)
GI50 [42]: > 100 µM (inactive)
GI50 [43]: > 100 µM (inactive)
GI50 [44]: > 100 µM (inactive)
GI50 [45]: > 100 µM (inactive)
GI50 [46]: > 100 µM (inactive)
GI50 [47]: > 100 µM (inactive)
GI50 [48]: > 100 µM (inactive)
GI50 [49]: > 100 µM (inactive)
GI50 [50]: > 100 µM (inactive)
GI50 [51]: > 100 µM (inactive)
GI50 [52]: > 100 µM (inactive)

CC(C)(C)OC(=O)CN1CCNCCN(CC(=O)OC(C)(C)C)CC1
GI50 [1]: > 100 µM (inactive)
GI50 [2]: > 100 µM (inactive)
GI50 [3]: > 100 µM (inactive)
GI50 [4]: > 100 µM (inactive)
GI50 [5]: > 100 µM (inactive)
GI50 [6]: > 100 µM (inactive)
GI50 [7]: > 100 µM (inactive)
GI50 [8]: > 100 µM (inactive)
GI50 [9]: > 100 µM (inactive)
GI50 [10]: > 100 µM (inactive)
GI50 [11]: 40.7 µM (inactive)
GI50 [12]: > 100 µM (inactive)
GI50 [13]: > 100 µM
GI50 [53]: 19.2 µM (inactive)
GI50 [14]: > 100 µM (inactive)
GI50 [15]: > 100 µM (inactive)
GI50 [16]: 44.3 µM (inactive)
GI50 [17]: > 100 µM (inactive)
GI50 [18]: > 100 µM (inactive)
GI50 [54]: 54.5 µM (inactive)
GI50 [19]: > 100 µM (inactive)
GI50 [20]: > 100 µM (inactive)
GI50 [55]: > 100 µM (inactive)
GI50 [21]: > 100 µM (inactive)
GI50 [22]: > 100 µM (inactive)
GI50 [24]: > 100 µM (inactive)
GI50 [56]: > 100 µM (inactive)
GI50 [25]: 0.731 µM (active)
GI50 [26]: > 100 µM (inactive)
GI50 [28]: > 100 µM (inactive)
GI50 [29]: 56.9 µM (inactive)
GI50 [30]: > 100 µM (inactive)
GI50 [31]: > 100 µM (inactive)
GI50 [32]: > 100 µM (inactive)
GI50 [33]: > 100 µM (inactive)
GI50 [34]: > 100 µM (inactive)
GI50 [35]: > 100 µM (inactive)
GI50 [57]: > 100 µM (inactive)
GI50 [38]: > 100 µM (inactive)
GI50 [58]: > 100 µM (inactive)
GI50 [40]: > 100 µM (inactive)
GI50 [41]: > 100 µM (inactive)
GI50 [42]: > 100 µM (inactive)
GI50 [43]: > 100 µM (inactive)
GI50 [44]: > 100 µM (inactive)
GI50 [45]: 12.8 µM (inactive)
GI50 [59]: > 100 µM (inactive)
GI50 [47]: > 100 µM (inactive)
GI50 [48]: > 100 µM (inactive)
GI50 [50]: > 100 µM (inactive)
GI50 [51]: > 100 µM (inactive)
GI50 [52]: > 100 µM (inactive)

C[C@H](CCC(=O)O)[C@H]1CC[C@H]2[C@@H]3[C@H](O)[C@H](O)[C@@H]4C[C@H](O)CC[C@]4(C)[C@H]3CC[C@]12C [HYOCHOLIC ACID]
GI50 [1]: > 100 µM (inactive)
GI50 [2]: > 100 µM (inactive)
GI50 [3]: > 100 µM (inactive)
GI50 [4]: > 100 µM (inactive)
GI50 [5]: > 100 µM (inactive)
GI50 [6]: > 100 µM (inactive)
GI50 [7]: > 100 µM (inactive)
GI50 [8]: > 100 µM (inactive)
GI50 [9]: > 100 µM (inactive)
GI50 [10]: > 100 µM (inactive)
GI50 [11]: > 100 µM (inactive)
GI50 [12]: > 100 µM (inactive)
GI50 [13]: > 100 µM
GI50 [53]: > 100 µM (inactive)
GI50 [14]: > 100 µM (inactive)
GI50 [15]: > 100 µM (inactive)
GI50 [16]: > 100 µM (inactive)
GI50 [17]: > 100 µM (inactive)
GI50 [18]: > 100 µM (inactive)
GI50 [54]: > 100 µM (inactive)
GI50 [19]: > 100 µM (inactive)
GI50 [20]: 30.2 µM (inactive)
GI50 [55]: > 100 µM (inactive)
GI50 [21]: > 100 µM (inactive)
GI50 [22]: > 100 µM (inactive)
GI50 [23]: > 100 µM (inactive)
GI50 [24]: > 100 µM (inactive)
GI50 [56]: > 100 µM (inactive)
GI50 [25]: > 100 µM (inactive)
GI50 [26]: > 100 µM (inactive)
GI50 [27]: > 100 µM (inactive)
GI50 [28]: > 100 µM (inactive)
GI50 [29]: > 100 µM (inactive)
GI50 [30]: > 100 µM (inactive)
GI50 [32]: > 100 µM (inactive)
GI50 [33]: > 100 µM (inactive)
GI50 [34]: > 100 µM (inactive)
GI50 [35]: > 100 µM (inactive)
GI50 [57]: > 100 µM (inactive)
GI50 [36]: > 100 µM (inactive)
GI50 [37]: > 100 µM (inactive)
GI50 [58]: > 100 µM (inactive)
GI50 [39]: > 100 µM (inactive)
GI50 [40]: > 100 µM (inactive)
GI50 [43]: > 100 µM (inactive)
GI50 [44]: > 100 µM (inactive)
GI50 [45]: > 100 µM (inactive)
GI50 [46]: > 100 µM (inactive)
GI50 [47]: > 100 µM (inactive)
GI50 [48]: > 100 µM (inactive)
GI50 [49]: > 100 µM (inactive)
GI50 [50]: > 100 µM (inactive)
GI50 [51]: > 100 µM (inactive)
GI50 [52]: > 100 µM (inactive)
